{"source": "patent US20200306210A1", "about": "(ZOGENIX INTERNATIONAL LIMITED, priority 2017, published 2020)", "key": {"[1]": {"tested_on": "children and young adults with Dravet syndrome", "assay": "Study 1: Clinical Global Impression of Improvement (CGI-I)", "format": "in vivo, Human", "conditions": "either 0.2 or 0.8 mg/kg/day dose", "protocol": "CGI-S and CGI-I ratings were made by clinical investigators and parent/caregivers in a series of phase III trials of fenfluramine. CGI changes were measured in two randomized, controlled trials with results reported herein. Study 1 was conducted as described in Example 1 and CGI ratings were made according to a set schedule of visits made to the clinic. Tables of results and bar graphs of the statistical analyses of CGI ratings for Study 1 at visit twelve (day 113) are provided in FIGS. 1-4. […] Similar results were obtained with investigator CGI-I rating.\nIn Study 1, subjects were assessed using Clinical Global Impression (CGI), allowing the parent/caregiver and principal investigator to assess improvement, as well as the Quality of Life in Childhood Epilepsy (QOLCE) Scale and the Pediatric Quality of Life Inventory (PedsQL) to measure changes in the quality of life of the subject. Comparisons between treatment groups were made using Wilcoxon rank sum tests.\n(§1) The CGI scale measures the change in the subject's clinical status from a specific point in time, i.e., the Baseline Period (and also referred to as the CGI-S, an initial ranking of severity). The CGI rating scale permits a global evaluation of the subject's improvement over time."}, "[2]": {"tested_on": "subjects with Dravet syndrome", "assay": "Study 1503: open-label long-term extension, CGI-I at baseline and final visit", "format": "in vivo, Human", "conditions": "OLE Final Visit", "protocol": "Study 1503 was an open-label, long-term safety study of ZX008 in subjects with Dravet syndrome who successfully completed 14 weeks of treatment in 1501, 1502, or 1504 Cohorts 1 and 2. […] CGI-S(baseline scores) were determined at entry into 1503 (i.e., after completing a blinded 16 week trial) and then again at each patient's final visit. FIGS. 7 and 8, and Tables 3 and 4 present numbers of patients having each of the 7 ratings and statistical calculations of improvements.\nas §1"}, "[3]": {"molecular_target": "serotonin 5-HT2B receptor (Homo sapiens, UniProt P41595)", "sequence (P41595 whole entry)": "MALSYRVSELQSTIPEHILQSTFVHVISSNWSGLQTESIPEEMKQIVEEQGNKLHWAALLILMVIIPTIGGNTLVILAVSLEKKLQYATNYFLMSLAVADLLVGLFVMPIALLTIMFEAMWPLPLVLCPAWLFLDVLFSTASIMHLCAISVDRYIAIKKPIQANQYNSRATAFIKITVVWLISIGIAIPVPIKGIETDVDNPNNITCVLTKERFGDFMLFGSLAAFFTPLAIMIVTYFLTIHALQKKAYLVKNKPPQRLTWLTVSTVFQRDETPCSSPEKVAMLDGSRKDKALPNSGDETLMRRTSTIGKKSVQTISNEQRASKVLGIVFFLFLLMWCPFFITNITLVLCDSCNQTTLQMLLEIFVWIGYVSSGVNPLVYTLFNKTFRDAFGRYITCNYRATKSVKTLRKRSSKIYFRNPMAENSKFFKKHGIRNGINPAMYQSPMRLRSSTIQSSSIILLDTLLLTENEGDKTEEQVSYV", "conditions": "cited from earlier work"}, "[4]": {"molecular_target": "T1, serotonin 5-HT2C receptor (Homo sapiens, UniProt P28335)", "T1 sequence (P28335 33-458)": "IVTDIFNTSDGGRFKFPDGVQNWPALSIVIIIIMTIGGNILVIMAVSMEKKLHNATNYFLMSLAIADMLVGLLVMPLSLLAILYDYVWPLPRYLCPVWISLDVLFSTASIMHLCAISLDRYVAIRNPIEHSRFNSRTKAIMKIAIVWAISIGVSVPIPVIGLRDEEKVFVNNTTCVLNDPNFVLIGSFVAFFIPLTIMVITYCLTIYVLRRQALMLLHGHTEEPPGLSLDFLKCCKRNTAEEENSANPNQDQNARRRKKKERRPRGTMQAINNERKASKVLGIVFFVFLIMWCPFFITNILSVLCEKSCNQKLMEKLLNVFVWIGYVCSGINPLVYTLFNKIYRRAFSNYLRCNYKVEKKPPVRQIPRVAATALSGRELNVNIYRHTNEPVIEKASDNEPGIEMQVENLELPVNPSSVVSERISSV", "conditions": "cited from earlier work"}, "[5]": {"molecular_target": "serotonin 5-HT2A receptor (Homo sapiens, UniProt P28223)", "sequence (P28223 whole entry)": "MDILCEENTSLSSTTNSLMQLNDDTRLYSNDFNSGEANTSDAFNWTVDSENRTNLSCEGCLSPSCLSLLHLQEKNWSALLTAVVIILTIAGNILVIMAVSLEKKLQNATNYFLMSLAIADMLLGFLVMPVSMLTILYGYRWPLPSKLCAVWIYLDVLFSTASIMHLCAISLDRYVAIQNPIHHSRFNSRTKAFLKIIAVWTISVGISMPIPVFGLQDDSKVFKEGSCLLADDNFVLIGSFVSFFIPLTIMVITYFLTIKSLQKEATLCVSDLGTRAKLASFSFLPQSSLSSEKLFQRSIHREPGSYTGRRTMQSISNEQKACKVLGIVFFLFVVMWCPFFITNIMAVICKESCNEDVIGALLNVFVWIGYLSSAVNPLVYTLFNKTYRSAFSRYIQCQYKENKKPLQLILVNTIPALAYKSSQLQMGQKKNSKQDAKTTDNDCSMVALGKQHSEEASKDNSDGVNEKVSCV", "conditions": "cited from earlier work"}, "[6]": {"tested_on": "Dravet syndrome patients", "conditions": "Dravet syndrome (Devinsky, NEJM 2017); cited from earlier work"}, "[7]": {"tested_on": "Dravet syndrome patients", "conditions": "cited from earlier work"}}, "data": [{"smiles": "CCNC(C)Cc1cccc(C(F)(F)F)c1", "note": "(racemic) [fenfluramine, (RS)—N-ethyl-1-[3-(trifluoromethyl)phenyl]propan-2-amine, reference compound]", "values": [{"measurement": "Parents/caregivers rating their children 'very much improved' or 'much improved' (CGI-I) vs placebo group", "setting": "[1]", "result": "Significantly more"}, {"measurement": "CGI-I investigator, Improved (1, 2, 3), %", "setting": "[2]", "result": 85.4, "unit": "%"}, {"measurement": "CGI-I investigator, Much/very much improved (1, 2), %", "setting": "[2]", "result": 64.2, "unit": "%"}, {"measurement": "CGI-I parent/caregiver, Improved (1, 2, 3), %", "setting": "[2]", "result": 82.3, "unit": "%"}, {"measurement": "CGI-I parent/caregiver, Much/very much improved (1, 2), %", "setting": "[2]", "result": 62.5, "unit": "%"}]}, {"smiles": "CC(N)Cc1cccc(C(F)(F)F)c1", "note": "(stereo not shown) [norfenfluramine]", "values": [{"measurement": "Binds to and activates serotonin 5-HT2B receptor, affinity", "setting": "[3]", "result": "high affinity"}, {"measurement": "Binds to and activates serotonin 5-HT2C receptor, affinity", "setting": "[4]", "result": "high affinity"}, {"measurement": "Binds to and activates serotonin 5-HT2A receptor, affinity", "setting": "[5]", "result": "moderate affinity"}]}, {"smiles": "C=C(C)[C@@H]1CCC(C)=C[C@H]1c1c(O)cc(CCCCC)cc1O", "note": "[cannabidiol]", "values": [{"measurement": "Cognitive function, active treatment groups vs placebo", "setting": "[6]", "result": "did not achieve significant difference from placebo"}]}, {"smiles": "CC(C)(C)C(O)/C=C/c1ccc2c(c1)OCO2", "note": "(stereo not shown) [Stiripentol, stiripentol]", "values": [{"measurement": "Reduction of tonic-clonic seizure rate", "setting": "[7]", "result": 70, "unit": "%"}]}]}
